Read-outs that look alike come from different tables or passages of the source.
What was measured:
mild to moderate UC = conditions: cited from earlier work
[1] = system: TNBS-induced ulcerative colitis; assay: Murine TNBS-induced ulcerative colitis; type: in vivo, male balb/mice; conditions: for % protective effect vs. TNBS alone: Colon wt/length (TNBS-719)/(TNBS-ctl) / % protective effect vs. TNBS alone: Diarrhea / % protective effect vs. TNBS alone: Dilation / % protective effect vs. TNBS alone: MPO / % protective effect vs. TNBS alone: Macroscopic Score / % protective effect vs. TNBS alone: Ulceration / % protective effect vs. TNBS alone: Body wt d 4 (% Δ719-% ΔTNBS)/(% Δ Ctl-% ΔTNBS) / % protective effect vs. TNBS alone: Tissue TNFα: day 4; for % protective effect vs. TNBS alone: Body wt d 4 (% Δ719-% ΔTNBS)/(% Δ Ctl-% ΔTNBS): oral once daily
Method: The effect of the compound of Formula I in murine TNBS-induced ulcerative colitis. TNBS (Trinitro benzene sulfonic acid) is known to induce colitis in some strains of mice and rats by haptenating colonic proteins, resulting in an immune response. This model resembles multiple features, both histologic and immunologic, of human IBD (particularly Crohn's disease).
In some experiments, male balb/mice were pre-sensitized with 1% TNBS administered epicutaneously on day −7. On Day 0, TBNS (2.5 mg/100 mcl) in 35% ethanol or 100 mg/kg TNBS in 50% ethanol, was administered intrarectally, and colitis-relevant readouts were measured 4 days later. The compound of Formula I as hydrochloride salt or as fumarate salt was administered orally in 1% carboxymethylcellulose-Tween. Sulfazalazine was given at 100 mg/kg. Both compounds were given once daily.
• 0 No damage • 1 Hyperemia without ulcers • 2 Hyperemia and bowel wall thickening without ulcers • 3 One site of ulceration without bowel wall thickening • 4 Two or more sites of ulceration/inflammation • 5 0.5 cm inflammation and major damage • 6-10 1 cm or more of major damage (0.5 cm=1 point) • 0/1 Diarrhea +/− • 0/1/2 No dilatation/partial dilatation/dilatation in the whole length

human beta-tryptase = human beta-tryptase (Homo sapiens, UniProt P20231); assay: Inhibition of recombinant human beta-tryptase (Ki); type: biochemical; conditions: recombinant enzyme
Sequence of human beta-tryptase (P20231 31-275): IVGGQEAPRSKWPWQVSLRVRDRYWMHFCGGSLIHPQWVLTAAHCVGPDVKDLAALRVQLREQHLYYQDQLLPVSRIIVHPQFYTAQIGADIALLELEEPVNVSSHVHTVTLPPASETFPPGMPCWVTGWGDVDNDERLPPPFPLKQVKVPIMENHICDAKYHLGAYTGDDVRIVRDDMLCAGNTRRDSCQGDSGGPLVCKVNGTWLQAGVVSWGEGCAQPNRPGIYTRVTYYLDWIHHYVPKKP

[2] = molecular target: T1, mouse MCPT-6 (mouse orthologue of human beta-tryptase) (Mus musculus, UniProt P21845); assay: Inhibition of recombinant mouse MCPT-6 (Ki); type: biochemical; conditions: recombinant enzyme
T1 sequence (P21845 32-276): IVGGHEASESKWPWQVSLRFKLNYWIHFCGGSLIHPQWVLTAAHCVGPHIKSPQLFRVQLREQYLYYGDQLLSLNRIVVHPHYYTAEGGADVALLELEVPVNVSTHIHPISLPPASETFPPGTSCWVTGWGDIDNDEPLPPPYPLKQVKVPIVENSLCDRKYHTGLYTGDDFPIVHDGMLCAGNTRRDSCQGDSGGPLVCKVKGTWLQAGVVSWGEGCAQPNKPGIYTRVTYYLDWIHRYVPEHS

b-tryptase = b-tryptase (Homo sapiens, UniProt P20231); conditions: reported selective b-tryptase inhibitor at low doses; cited from earlier work
Sequence of b-tryptase (P20231 31-275): as the sequence (P20231 31-275) above

TNBS-induced colitis = conditions: rat; intra-colonic injections of NM 10-9, 10-11 and 10-13 M daily for 6 days; compared with 5-ASA 25 mg/Kg; cited from earlier work
[3] = first Formula I / sulfazalazine column pair, sulfazalazine 100 mg/kg
[4] = second Formula I / sulfazalazine column pair, sulfazalazine 100 mg/kg

Row | SMILES | % protective effect vs. TNBS alone: Body wt d 4 (% Δ719-% ΔTNBS)/(% Δ Ctl-% ΔTNBS) [1, 3] [%] | % protective effect vs. TNBS alone: Colon wt/length (TNBS-719)/(TNBS-ctl) [1, 3] [%] | % protective effect vs. TNBS alone: Diarrhea [1, 3] [%] | % protective effect vs. TNBS alone: Dilation [1, 3] [%] | % protective effect vs. TNBS alone: MPO [1, 3] [%] | % protective effect vs. TNBS alone: Macroscopic Score [1, 3] [%] | % protective effect vs. TNBS alone: Tissue TNFα [1, 3] [%] | % protective effect vs. TNBS alone: Ulceration [1, 3] [%] | % protective effect vs. TNBS alone: Body wt d 4 (% Δ719-% ΔTNBS)/(% Δ Ctl-% ΔTNBS) [1, 4] [%] | % protective effect vs. TNBS alone: Colon wt/length (TNBS-719)/(TNBS-ctl) [1, 4] [%] | % protective effect vs. TNBS alone: Diarrhea [1, 4] [%] | % protective effect vs. TNBS alone: Dilation [1, 4] [%] | % protective effect vs. TNBS alone: MPO [1, 4] [%] | % protective effect vs. TNBS alone: Macroscopic Score [1, 4] [%] | % protective effect vs. TNBS alone: Ulceration [1, 4] [%] | further results
1 | NC(N)=Nc1ccc(CN2CCN(C(=O)O[C@@H]3CO[C@H]4[C@@H]3OC[C@H]4OC(=O)N3CCN(Cc4ccc(N=C(N)N)cc4)CC3)CC2)cc1 [APC-2059] |  |  |  |  |  |  |  |  |  |  |  |  |  |  |  | safety and tolerability (mild to moderate UC; 20 mg, SC, BID for 28 days on background of oral 5-ASA): safe and well tolerated; patients meeting remission criteria (DAI=0) (mild to moderate UC; 20 mg, SC, BID, 28 days, 5/56): 9%; patients meeting primary EP as responded (DAI≦3) (mild to moderate UC; 20 mg, SC, BID, 28 days, 16/56): 29%; patients meeting improved criteria (DAI≦3 or decreased by 4 points from baseline) (mild to moderate UC; 20 mg, SC, BID, 28 days, 27/56): 49%; response rate, post hoc (mild to moderate UC; baseline DAI score 7-9, 6/33): 18%; response rate, post hoc (mild to moderate UC; baseline DAI scores 6-7, 10/22): 45%; response, post hoc (mild to moderate UC; one patient, baseline DAI=11): did not respond
2 | COCCn1cc(C(=O)N2CCC(c3cc(CN)ccc3F)CC2)c2c(OC(F)(F)F)ccc(F)c21 [Formula I, [4-(5-Aminomethyl-2-fluorophenyl)piperidine-1-yl][7-fluoro-1-(2-methoxyethyl)-4-trifluoromethoxy-1H-indol-3-yl]methanone] | 20 | 41 | 50 | 55 | 13 | 51 | 50 | 50 | 27 | 23 | 57 | 33 | 19 | 30 | 21 | % protective effect vs. TNBS alone: Colon wt/length (TNBS-719)/(TNBS-ctl) ([1]; Formula I 3 mpk): −10%; % protective effect vs. TNBS alone: Diarrhea ([1]; Formula I 3 mpk): 50%; % protective effect vs. TNBS alone: Dilation ([1]; Formula I 3 mpk): 25%; % protective effect vs. TNBS alone: MPO ([1]; Formula I 3 mpk): 0%; % protective effect vs. TNBS alone: Macroscopic Score ([1]; Formula I 3 mpk): 25%; % protective effect vs. TNBS alone: Ulceration ([1]; Formula I 3 mpk): 23%; % protective effect vs. TNBS alone: Colon wt/length (TNBS-719)/(TNBS-ctl) ([1]; Formula I 10 mpk): 16%; % protective effect vs. TNBS alone: Diarrhea ([1]; Formula I 10 mpk): 50%; % protective effect vs. TNBS alone: Dilation ([1]; Formula I 10 mpk): 38%; % protective effect vs. TNBS alone: MPO ([1]; Formula I 10 mpk): 0%; % protective effect vs. TNBS alone: Macroscopic Score ([1]; Formula I 10 mpk): 27%; % protective effect vs. TNBS alone: Ulceration ([1]; Formula I 10 mpk): 25%; decrease of macroscopic damage ([1]; doses ranging from 3-30 mg/kg, oral, once daily, hydrochloride or fumarate salt): 20-50%; protective effects in multiple aspects of experimental colitis ([1]; oral, once daily, versus sulfazalazine positive control): compared well with the sulfazalazine positive control; Ki (human beta-tryptase): 38 nM; Ki [2]: 920 nM
3 | N=C(N)c1ccc2cc(OC(=O)c3ccc(N=C(N)N)cc3)ccc2c1 [Nafamostat mesilate] |  |  |  |  |  |  |  |  |  |  |  |  |  |  |  | Ki (b-tryptase): 0.095 nM; colonic mucosal inflammation (TNBS-induced colitis): significantly attenuated
4 | O=C(O)c1cc(/N=N/c2ccc(S(=O)(=O)Nc3ccccn3)cc2)ccc1O [sulfazalazine, reference compound] | 46 | 29 | 50 | 33 | 44 | 51 | 50 | 53 | 10 | 23 | 43 | 8 | 21 | 14 | 11 | 
